#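 Values below derive from 48-hour exposures of cells grown in 96-well plates, with endpoints linearly interpolated between the two concentrations bracketing the appropriate inhibition level. GI50: concentration for 50% inhibition of growth.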 Activity calls are given as the source filed them. No stated cut-off is given here; in the data, active = GI50 up to about 1.1 µM and inactive = higher.
# Columns and labels:
# Assay in all cases: NCI-60 cell line screen, 48 h
# 786-0 = system: 786-0
# A549 = system: A549
# DLD-1 = system: DLD-1
# EKVX = system: EKVX
# HCC 2998 = system: HCC 2998
# K562 = system: K562
# KM12 = system: KM12
# M14 = system: M14
# NCI-H460 = system: NCI-H460
# OVCAR-3 = system: OVCAR-3
# BT-549 = system: BT-549
# DU-145 = system: DU-145
# Hs-578T = system: Hs-578T
# MCF7 = system: MCF7
# MDA-MB-231 = system: MDA-MB-231
# MDA-MB-435 = system: MDA-MB-435
# MDA-N = system: MDA-N
# NCI/ADR-RES = system: NCI/ADR-RES
# PC-3 = system: PC-3
# T47D = system: T47D
Compound,GI50 (786-0),GI50 (A549),GI50 (DLD-1),GI50 (EKVX),GI50 (HCC 2998),GI50 (K562),GI50 (KM12),GI50 (M14),GI50 (NCI-H460),GI50 (OVCAR-3),GI50 (BT-549),GI50 (DU-145),GI50 (Hs-578T),GI50 (MCF7),GI50 (MDA-MB-231),GI50 (MDA-MB-435),GI50 (MDA-N),GI50 (NCI/ADR-RES),GI50 (PC-3),GI50 (T47D)
COc1cccc(CC(C)N)c1 (stereo unspecified),> 100 µM (inactive),> 100 µM (inactive),> 100 µM (inactive),> 100 µM (inactive),> 100 µM (inactive),> 100 µM (inactive),> 100 µM (inactive),> 100 µM (inactive),> 100 µM (inactive),> 100 µM (inactive),–,–,–,–,–,–,–,–,–,–
O=[N+]([O-])C(/C=C(\Cl)[N+](=O)[O-])=C1Nc2ccccc2N1,52.4 µM (inactive),> 100 µM (inactive),–,48.5 µM (inactive),> 100 µM (inactive),79.6 µM (inactive),> 100 µM (inactive),60.8 µM (inactive),> 100 µM (inactive),90.2 µM (inactive),42 µM (inactive),> 100 µM (inactive),48.9 µM (inactive),39.6 µM (inactive),36.7 µM (inactive),42.6 µM (inactive),59.8 µM (inactive),> 100 µM (inactive),46.3 µM (inactive),17.9 µM (inactive)
COc1c(Cl)cc(Cl)cc1S(=O)O,–,–,> 100 µM (inactive),> 100 µM (inactive),> 100 µM (inactive),> 100 µM (inactive),> 100 µM (inactive),> 100 µM (inactive),> 100 µM (inactive),> 100 µM (inactive),–,–,–,–,–,–,–,–,–,–
CC(C)(C)[Si](OC1CCOC1=O)(c1ccccc1)c1ccccc1 (stereo unspecified),–,15.2 µM (inactive),22.2 µM (inactive),31.3 µM (inactive),18.9 µM (inactive),–,> 10 µM (inactive),18 µM (inactive),18.7 µM (inactive),13.1 µM (inactive),–,–,–,–,–,–,–,–,–,–
NC(=O)c1csc(C2O[C@@H](COP(=O)(O)OP(=O)(O)OC[C@H]3OC(n4cnc5c(N)ncnc54)[C@H](O)[C@@H]3O)[C@H](O)[C@@H]2O)n1 (stereo partly specified),57.1 µM (inactive),> 100 µM (inactive),45.2 µM (inactive),> 100 µM (inactive),> 100 µM (inactive),23.6 µM (inactive),88.1 µM (inactive),37.8 µM (inactive),39.6 µM (inactive),> 100 µM (inactive),–,–,–,–,–,–,–,–,–,–
CC(C(=O)n1nnc2ccccc21)N(c1ccccc1)c1ccccc1 (stereo unspecified),> 100 µM (inactive),56.9 µM (inactive),> 100 µM (inactive),68.2 µM (inactive),> 100 µM (inactive),> 100 µM (inactive),–,> 100 µM (inactive),> 100 µM (inactive),66.7 µM (inactive),–,–,–,–,–,–,–,–,–,–
COc1ccc(C2CC(c3sc(Nc4ccc(C)cc4)nc3C)=NN2)cc1 (stereo unspecified),–,15.6 µM (inactive),14 µM (inactive),20.5 µM (inactive),15.8 µM (inactive),12.8 µM (inactive),15.2 µM (inactive),–,14.9 µM (inactive),15.8 µM (inactive),–,–,–,14 µM (inactive),–,–,–,17.4 µM (inactive),–,–
C=C1CC(OC)(C(O)C(=O)N[C@H]2OCO[C@H]3C2O[C@H](C[C@@H](COC)OC)C(C)(C)C3OC)O[C@H](C)[C@@H]1C (stereo partly specified),–,< 0.00482 µM (active),< 0.00482 µM (active),< 0.00482 µM (active),< 0.00482 µM (active),< 0.00482 µM (active),< 0.00482 µM (active),–,< 0.00482 µM (active),< 0.00482 µM (active),–,–,–,< 0.00482 µM (active),–,–,–,< 0.00482 µM (active),–,–
NS(=O)(=O)c1cc2c(cc1Cl)NC(C(=O)NNC(=O)c1ccncc1)=NS2(=O)=O,> 100 µM (inactive),> 100 µM (inactive),> 100 µM (inactive),> 100 µM (inactive),> 100 µM (inactive),–,> 100 µM (inactive),> 100 µM (inactive),> 100 µM (inactive),> 100 µM (inactive),–,–,–,–,–,–,–,–,–,–
CSCCC(N)P(C)(=O)O (stereo unspecified),> 100 µM (inactive),> 100 µM (inactive),–,> 100 µM (inactive),> 100 µM (inactive),> 100 µM (inactive),> 100 µM (inactive),> 100 µM (inactive),> 100 µM (inactive),> 100 µM (inactive),> 100 µM (inactive),> 100 µM (inactive),> 100 µM (inactive),> 100 µM (inactive),> 100 µM (inactive),> 22.2 µM (inactive),> 100 µM (inactive),> 100 µM (inactive),> 100 µM (inactive),> 100 µM (inactive)
CC1CC(NC2CCCCC2)=Nc2ccccc2N1Cc1ccccc1 (stereo unspecified),7.71 µM (inactive),4.43 µM (inactive),–,8.22 µM (inactive),2.31 µM (inactive),1.73 µM (inactive),4.75 µM (inactive),2.04 µM (inactive),3.37 µM (inactive),6.92 µM (inactive),6.05 µM (inactive),4.66 µM (inactive),3.95 µM (inactive),3.66 µM (inactive),4.51 µM (inactive),3.38 µM (inactive),3.69 µM (inactive),5.85 µM (inactive),5.41 µM (inactive),4.18 µM (inactive)
C=CCN1C(=O)/C(=C/c2ccc(OC)cc2)NC1=S,> 100 µM (inactive),34.8 µM (inactive),–,18.3 µM (inactive),> 100 µM (inactive),38.5 µM (inactive),97.7 µM (inactive),53.3 µM (inactive),> 100 µM (inactive),> 100 µM (inactive),50.2 µM (inactive),> 100 µM (inactive),> 100 µM (inactive),40.9 µM (inactive),> 100 µM (inactive),57.3 µM (inactive),33.8 µM (inactive),> 100 µM (inactive),84.5 µM (inactive),42.2 µM (inactive)
CCOC(=O)c1cc2c([N+](=O)[O-])c(NC(C)=O)ccc2s1,62.8 µM (inactive),50.2 µM (inactive),–,12.6 µM (inactive),> 100 µM (inactive),53.6 µM (inactive),74.8 µM (inactive),> 100 µM (inactive),> 100 µM (inactive),38.4 µM (inactive),72.1 µM (inactive),49 µM (inactive),37.8 µM (inactive),63 µM (inactive),24.1 µM (inactive),76.4 µM (inactive),81.8 µM (inactive),55.2 µM (inactive),33.5 µM (inactive),15 µM (inactive)
O=P(CCOc1ccccc1OCCP(=O)(c1ccccc1)c1ccc2c(c1)OCCOCCOCCOCCO2)(c1ccccc1)c1ccc2c(c1)OCCOCCOCCOCCO2 (stereo unspecified),> 100 µM (inactive),> 100 µM (inactive),> 100 µM (inactive),> 100 µM (inactive),> 100 µM (inactive),> 100 µM (inactive),–,> 100 µM (inactive),> 100 µM (inactive),> 100 µM (inactive),–,–,–,–,–,–,–,–,–,–
CC(Oc1ccccc1Cl)C(=O)NN1C(=O)CSC1c1ccc(Cl)cc1 (stereo unspecified),15.2 µM (inactive),18.5 µM (inactive),–,26.8 µM (inactive),18.4 µM (inactive),6.73 µM (inactive),18.1 µM (inactive),18.4 µM (inactive),25.4 µM (inactive),23.3 µM (inactive),21.3 µM (inactive),18.2 µM (inactive),20.4 µM (inactive),18.1 µM (inactive),17.3 µM (inactive),16.4 µM (inactive),15.2 µM (inactive),23.9 µM (inactive),18.9 µM (inactive),20.1 µM (inactive)
NC(=O)c1ncn2c1NC(=O)CC2,–,> 100 µM (inactive),> 100 µM (inactive),> 100 µM (inactive),> 100 µM (inactive),> 100 µM (inactive),> 100 µM (inactive),–,> 100 µM (inactive),> 100 µM (inactive),–,–,–,> 100 µM (inactive),–,–,–,> 100 µM (inactive),–,–
CON(C)C(=O)C(Cc1ccccc1)NC(=O)OCc1ccccc1 (stereo unspecified),–,> 100 µM (inactive),> 100 µM (inactive),> 100 µM (inactive),> 100 µM (inactive),77.1 µM (inactive),> 100 µM (inactive),> 100 µM (inactive),> 100 µM (inactive),> 100 µM (inactive),–,–,–,–,–,–,–,–,–,–

# Source: ChEMBL document CHEMBL1201862, “PubChem BioAssay data set” (2004)
